Reference: US20100240887A1, “New methods of producing HHT” (priority 2009, published 2010)
Like-named read-outs stand apart in the source and are kept apart here.

Assays:
[1] = test system: Malignant melanoma of the pigmented layers of eyes; experiment: Inhibition of tumor cell proliferation, malignant melanoma of eyes; format: cell-based; conditions: 1 μg/ml, 72 hours
Description: (§1) Human tumor cell lines: Hela leukemia HL-60, malignant melanocarcinoma B16, oral epidermoid carcinoma (KB), lung carcinoma (A549), breast carcinoma MCF-7, adenocarcinoma of stomach.
(§2) Animal tumor cell lines: Walker carcinoma, LLC-WRC-256, malignant melanoma (RMMI 1846), 3T3, and S-180 sarcoma (CCRF-180). All lines were routinely cultured in the RPMI1640 medium supplemented 20% fetal calf serum. The experiment was carried out in 96 microplate, each well had 5×10^5 cells and given desired concentration of 1 μg/ml (1×10^−6 g/ml) drug. Then the plate was incubated at […] in an atmosphere of humidified air enriched with 5 percent carbon dioxide for 72 hours.
(§3) Inhibition percent rate of tumor cell proliferation was obtained according to the bellow formula.

Malignant melanoma cells = experiment: Apoptosis of malignant melanoma cells; format: cell-based; conditions: 50 ng/ml
Description: (§4) Cells ([…] were incubated in 10 ml IMDM plus […] heat-inactivated fetal calf serum. Samples were incubated for 24 hours with various concentrations of drugs. Control samples received the same amount of media, without drug addition. After 24 hours of incubation the samples were pelleted and fixed in ethanol […] for 15 minutes at 4° C.; after three washes in PBS, the cells were treated with RNase I 0.5 mg/ml for 15 minutes at 37° C. The cells were harvested by centrifugation and resuspended in 50 μg/ml propidium iodide in PBS. Analysis (upon acquisition of 10,000-20,000 events) was performed on a FACscan flow cytometer with the FL2 detector in logarithmic mode, using Lysis II software (Becton Dickinson). […]
(§5) For evaluation of apoptosis by flow cytometry, cells were fixed and permeabilized in 1% paraformaldehyde and ice-cold 70% ethanol. […] Green (apoptotic cells) and orange (total DNA) fluorescence were measured with a FACScan flow cytometer and analyzed with LYSIS II and CELLFIT programs. Data were analyzed by Student's t-test. […]
(§6) Untreated and treated HL-60 cells collected by centrifugation, washed in phosphate buffered saline and re-suspended at a concentration of 5×10^6 cells and 0.1% RNase A. The mixture was incubated at 37° C. for 30 min and then incubated for an additional 30 min at 37° C. […] DNA was precipitated with 0.5 N perchloric acid and quantitated using diphenylamine reagent. […]

gastric cancer cells = experiment: Cellular diversion of gastric cancer cells (NBT); format: cell-based
Normal cells = experiment: Apoptosis of normal cells; format: cell-based; conditions: 50 ng/ml (Table 4)
Description: as §4, §5, §6

L615 transplanted tumor = experiment: Growth of transplanted tumor in mice; format: in vivo; conditions: intraperitoneally, 20 mg/kg, sacrificed on the 12th day
Description: Male mice, weight 20-22 g, were used in the experiment. 1×10^7 tumor cells were injected to mouse and other drugs injected intraperitoneally began second day. All mice were sacrificed on the 12th day, isolated the tumor and weighed and calculated the inhibition rate of tumor weight.
The effect of HHT on the growth of animal transplanted tumor as illustrated by the Table 6.20 mg/kg of other drugs could inhibit the growth of L615 transplanted tumor.

mice = experiment: LD50 in mice; format: in vivo; conditions: injection in abdominal cavity in mice
Text: (§7) • 1. […] LD50 of HHT is much higher than majority anticancer drugs. The toxicology data of HHT mean that HHT is safe drug for treatment of cancer cells.

Leukemic cells = experiment: Inhibition of tumor cell proliferation, leukemic cells; format: cell-based, human; conditions: 1 μg/ml, 72 hours
Description: as §1, §2, §3

HL-60 cells = experiment: Cellular diversion of human leukemic cells (NBT); format: cell-based; conditions: human leukemic cells (HL-60); index of normal cells
[2] = test system: NNK-induced pulmonary adenomas; experiment: NNK-induced lung tumorigenesis; format: in vivo; conditions: mice, 20 mg/kg daily by injection, NNK 10 μmol i.p., sixteen weeks
Description: Every group had 20 mice. […] For control group, each mouse was gave same volume of physiological saline. Three days later, mice were gave 10 μmol NNK (in 0.1 ml saline) by i.p. injection. Sixteen weeks after these treatments the mice were killed and pulmonary adenomas were counted. The statistical significance of bioassay data was determined by student's test.

tyrosine kinase (TK) = experiment: Tyrosine kinase (TK) assay in HL-60 leukemia cells; format: cell-based, human; conditions: for % of control activity (TK): Table 8, concentration not given
Description: Tyrosine kinase (TK) Assay: TK was measured by a modification of the method of Braun et al. Briefly, H-60 leukemia cells were plated at a density of 5×10^5 cells in […], and divided control and treatments groups for incubation 24 hours at 37° C. with 5% CO2. The cells were collected by scraping, washed twice with phosphate-buffered saline, and resuspended at density of 10^6 cells/ml in 5 mM HEPEs buffer (pH 7.4). The cells were then resuspended in 1 ml of buffer containing 5 mM HEPES (pH 7.6), 1 mM MgCl2 and 1 mM EDTA, then placed on ice bath. The cell membrane was disrupted by ultra sound and centrifuged at 1,000×g for 10 minutes. The supernatant was ultra centrifuged at 30,000×g for 30 minutes at 4° C. The pellet was resuspended in 0.3 ml of buffer containing 25 mM HEOES, centrifuged at 12,000×g for 5 minutes. The resulting supernatant was used for TK assay. Content of protein was determined. 10 μg of protein placed in 20 mM HEPES (pH 7.6), 15 mM MgCl2, 10 mM ZnCl2 and 5% (v/v) nonidet P-40, with or without substrate [glutamic acid (GT), mg/ml]. After 5 minutes incubation at 25° C., the reaction was initiated by the addition of 25 μM [γ^32P] ATP (3 ci/mmol). After 10 minutes, the reaction was stopped by the addition of 20 mM cold ATP. 50 μl of the mixtures were spotted on glass microfiber filter discs and washed three times with cold trichloroacetic acid (TCA), contained 10 mM sodium pyrophosphate. Air dried. Radioactivity was determined by liquid scintillation spectrometry. The net TK activity was determined after correcting for endogenous TK activity.

dogs [3] = conditions: dog, in vivo
Description: (§8) Forty dogs were used. Body weight, food consumption, general observations, laboratory tests, and postmortem examinations were determined.
(§9) Twenty normal adult dogs had weight approximately 10 kg±1 kg used in experiments. Toxic doses for dogs: 0.15 mg/kg/days×7 and 0.30 mg/kg/days×7 of HHT was injected as the toxic doses.
(§10) For HHT treatment group, at least eight dogs that died early in the observation period and eight dogs that died late were examined.

LD50 in mice = format: in vivo; conditions: mouse, in vivo, intraperitoneal; injection in abdominal cavity in mice
Text: as §7

dogs [4] = experiment: Short-term toxicity in dogs
Description: as §8, §9, §10

Row | Compound | Inhibition (%) [1] [%] | Apoptosis (%) (Malignant melanoma cells) | Apoptosis (%) (Normal cells) | Inhibition (%) of transplanted tumor (tumor weight) (L615 transplanted tumor) [%] | LD50 (mice) [mg/kg] | Inhibition (%) (Leukemic cells) | NBT (%) (HL-60 cells) | Tumor incidence (%) [2] [%] | % of control activity (TK) (tyrosine kinase (TK)) [%] | also measured
1 | COC(=O)C[C@](O)(CCCC(C)(C)O)C(=O)O[C@@H]1C(OC)=C[C@]23CCCN2CCc2cc4c(cc2[C@H]13)OCO4 [C-HHT] | 83.1 ± 9.8 | 43.8 ± 4.2 | 19.2 ± 2.5 | 67.8 ± 6.0 | 4.0 | 74.1 ± 10.8 | 64 ± 8.0 | 21.7 ± 4.8 | 20.0 ± 5.0 | NBT (%) (gastric cancer cells): 57 ± 8.9 %
2 | COC(=O)C[C@](O)(CCCC(C)(C)O)C(=O)O[C@@H]1C(OC)=C[C@]23CCCN2CCc2cc4c(cc2[C@H]13)OCO4 [HHT, Homoharringtonine] | – | – | – | – | – | – | – | – | – | inhibition at 1 µg/mL [1]: 80 ± 9.2%; delayed toxicity (dogs [3]): No significant delayed toxicity; major target organs involved in toxicity (dogs [3]): G.I. tract, heart and hematopoietic organs; Heart rate (dogs [3]; 0.1 mg/kg/day): 205 beat/min; Leukocyte count (dogs [3]; 0.1 mg/kg/day): 3.90 ×10^3/mm^3; Heart rate (dogs [3]; 0.2 mg/kg/day): 230 beat/min; Leukocyte count (dogs [3]; 0.2 mg/kg/day): 3.58 ×10^3/mm^3; Heart rate (dogs [3]; 0.3 mg/kg/day): 259 beat/min; Leukocyte count (dogs [3]; 0.3 mg/kg/day): 3.20 ×10^3/mm^3; LD50 (LD50 in mice): 4.07 mg/kg; Heart rate (dogs [4]; 0.1 mg/kg/d × 7, ♀): 208 beat/min; Leukocyte count (dogs [4]; 0.1 mg/kg/d × 7, ♀): 3.91 ×10^3/mm^3; Heart rate (dogs [4]; 0.2 mg/kg/d × 7, ♀): 232 beat/min; Leukocyte count (dogs [4]; 0.2 mg/kg/d × 7, ♀): 3.65 ×10^3/mm^3; Heart rate (dogs [4]; 0.3 mg/kg/d × 7, ♀): 260 beat/min; Leukocyte count (dogs [4]; 0.3 mg/kg/d × 7, ♀): 3.25 ×10^3/mm^3; inhibition of TK activity (tyrosine kinase (TK); 10^−6 M): 99.9%
3 | COC(=O)C[C@](O)(CCCC(C)(C)O)C(=O)O[C@@H]1C(OC)=C[C@]23CCCN2CCc2cc4c(cc2[C@H]13)OCO4 [S-HHT] | 82.5 ± 10.2 | 43.0 ± 6.0 | 18.0 ± 2.0 | 69.2 ± 7.0 | 4.20 | 72.5 ± 11.6 | 63 ± 7.8 | 26.5 ± 4.9 | 20.8 ± 4.8 | –
